Experimental findings from patent publication US20220340566A1, “BENZYL AMINE-CONTAINING 5,6-HETEROAROMATIC COMPOUNDS USEFUL AGAINST MYCOBACTERIAL INFECTION” (priority 2019, published 2022) are described below.

The nature of data set [1]: Metabolic stability test in pooled human liver microsomes. Type of data set: in vitro ADME. Particulars: human liver microsomes 0.5 mg protein/mL, 1 mmol/L NADPH, 37° C., 30 minutes. Here is the method: Using a commercially available pooled human liver microsomes, a compound of the present invention was reacted for a constant time, a remaining rate was calculated by comparing a reacted sample and an unreacted sample, thereby, a degree of metabolism in liver was assessed.
A reaction was performed (oxidative reaction) at 37° C. for 0 minute or 30 minutes in the presence of 1 mmol/L NADPH in 0.2 mL of a buffer (50 mmol/L Tris-HCl pH 7.4, 150 mmol/L potassium chloride, 10 mmol/L magnesium chloride) containing 0.5 mg protein/mL of human liver microsomes. After the reaction, 50 μL of the reaction solution was added to 100 μL of a methanol/acetonitrile=1/1 (v/v), mixed and centrifuged at 3000 rpm for 15 minutes. The compound of the present invention in the supernatant was quantified by LC/MS/MS or solid phase extraction (SPE)/MS, and a remaining amount of the compound of the present invention after the reaction was calculated, letting a compound amount at 0 minute reaction time to be 100%.
For orientation: Liver microsomes are vesicles of endoplasmic reticulum, rich in cytochrome P450 enzymes.

For data set [2], the system named is Mycobacterium avium ATCC700898. The data set can be described thus: Determination of IC85 against M. avium (resazurin fluorescence). Particulars: 37° C., 3 days incubation then resazurin, fluorescence one day later. It counts as cell-based.
Where [3] appears, read: Mycobacterium avium, ATCC700898, M. avium ATCC700898, CAMHB medium, read-out: IC85.
The mark [4] stands for this setting: M. avium ATCC700898, CAMHB medium.

Where two headings read alike, the source gives them in different places.

With `Cc1ccn2c(C(=O)NCc3ccc(C4CCN(c5ccc(OC(F)(F)F)cc5)CC4)c(F)c3)c(C)nc2c1` [Compound I-1-1], the “MS_h_% (remaining amount of compound after reaction, 0 minute = 100%)” value in data set [1] is 75%. Moreover, the IC85 in data set [2] (setting [3]) came out at 0.017 µM.
In the case of `Cc1ccn2c(C(=O)NCc3ccc(N4CCN(c5ccc(OC(F)(F)F)cc5)[C@@H](C)C4)c(F)c3)c(C)nc2c1` [Compound I-1-2], the “MS_h_% (remaining amount of compound after reaction, 0 minute = 100%)” value in data set [1] is 86%. The IC85 in data set [2] (setting [3]) came out at 0.021 µM.
Taken in the same sequence, the figures for `CCc1nc2ccc(Cl)cn2c1C(=O)NCc1ccc(N2CCN(c3ccc(OC(F)(F)F)cc3)[C@@H](C)C2)c(F)c1` [Compound I-1-3] were 66% and 0.003 µM.
For the compound `Cc1ccn2c(C(=O)NCc3ccc(C4CCN(c5ccc(OC(C)C)cc5)CC4)c(F)c3)c(C)nc2c1` [Compound I-1-4], in data set [1], the “MS_h_% (remaining amount of compound after reaction, 0 minute = 100%)” value turned out to be 88%. The IC85 in data set [2] (setting [3]) was 0.1 µM.
With `Cc1ccn2c(C(=O)NCc3ccc(C4CCN(c5ccc(OCCF)cc5)CC4)c(F)c3)c(C)nc2c1` [Compound I-1-5], in data set [1], the “MS_h_% (remaining amount of compound after reaction, 0 minute = 100%)” value is listed as 70%. Besides, the IC85 in data set [2] (setting [3]) came out at 0.048 µM.
Take `Cc1ccn2c(C(=O)NCc3ccc(C4CCN(c5ccc(OC(F)(F)F)cn5)CC4)c(C)c3)c(C)nc2c1` [Compound I-1-7]: the “MS_h_% (remaining amount of compound after reaction, 0 minute = 100%)” value in data set [1] worked out at 87%. Besides, in data set [2] (setting [3]), the IC85 is 0.17 µM.
Taken in the same sequence, the figures for `Cc1ccn2c(C(=O)NCc3ccc(C4CCN(c5ccc(OC(F)(F)F)cc5)CC4)cc3F)c(C)nc2c1` [Compound I-1-8] were 86% and 0.58 µM.
Taken in the same sequence, the figures for `Cc1ccn2c(C(=O)NCc3ccc(C4CCN(c5ccc(OC(C)C)cc5)CC4)cc3F)c(C)nc2c1` [Compound I-1-9] were 82% and 0.94 µM.
Taken in the same sequence, the figures for `CCc1nc2ccc(Cl)cn2c1C(=O)NCc1ccc(C2CCN(c3ccc(OC(F)(F)F)cc3)CC2)cc1F` [Compound I-1-10] were 60% and 0.0031 µM.
`Cc1ccn2c(C(=O)NCc3ccc(C4CCN(c5ccc(OC(F)(F)F)cn5)CC4)cc3F)c(C)nc2c1` [Compound I-1-11]: the “MS_h_% (remaining amount of compound after reaction, 0 minute = 100%)” value in data set [1] is listed as 72%. The IC85 in data set [2] (setting [3]) is 0.089 µM.
Taken in the same sequence, the figures for `Cc1ccn2c(C(=O)NCc3ccc(N4CCN(c5ccc(OC(F)(F)F)cc5)[C@H](C)C4)c(F)c3)c(C)nc2c1` [Compound I-1-12] were 64% and 0.07 µM.
Consider `Cc1cc2nc(C)c(C(=O)NCc3ccc(C4CCN(c5ccc(OC(F)(F)F)cc5)CC4)c(F)c3)n2cc1Cl` [Compound I-1-13], for which the “MS_h_% (remaining amount of compound after reaction, 0 minute = 100%)” value in data set [1] came out at 82%. Moreover, the IC85 in data set [2] (setting [3]) came out at 0.057 µM.
On the same counts, the results for `Cc1nc2cc(C(F)(F)F)ccn2c1C(=O)NCc1ccc(C2CCN(c3ccc(OC(F)(F)F)cc3)CC2)c(F)c1` [Compound I-1-14] are 79% and 0.76 µM.
Taken in the same sequence, the figures for `Cc1ccn2c(C(=O)NCc3ccc(C4CCN(c5ccc(OC(F)(F)F)cc5)CC4)c(F)c3)c(C(F)(F)F)nc2c1` [Compound I-1-15] were 71% and 0.057 µM.
Taken in the same sequence, the figures for `Cc1ccc2nc(C)c(C(=O)NCc3ccc(C4CCN(c5ccc(OC(F)(F)F)cc5)CC4)c(F)c3)n2c1` [Compound I-1-16] were 67% and 0.0016 µM.
For the compound `O=C(NCc1ccc(C2CCN(c3ccc(OC(F)(F)F)cc3)CC2)c(F)c1)c1c(C(F)(F)F)nc2ccc(Cl)cn12` [Compound I-1-17], the “MS_h_% (remaining amount of compound after reaction, 0 minute = 100%)” value in data set [1] is on record as 63%. The compound also showed an IC85 in data set [2] (setting [4]) of 0.013 µM.
Regarding `Cc1nc2ccc(F)cn2c1C(=O)NCc1ccc(C2CCN(c3ccc(OC(F)(F)F)cc3)CC2)c(F)c1` [Compound I-1-18], the “MS_h_% (remaining amount of compound after reaction, 0 minute = 100%)” value in data set [1] came to 85%. For the same compound, in data set [2] (setting [3]), the IC85 came out at 0.011 µM.
Taken in the same sequence, the figures for `Cc1ccn2c(C(=O)NCc3ccc(C4CCN(c5cccc(OC(F)(F)F)c5)CC4)c(F)c3)c(C)nc2c1` [Compound I-1-19] were 87% and 0.13 µM.
`CCc1nc2ccc(Cl)cn2c1C(=O)NCc1ccc(C2CCN(c3ccc(OC(F)(F)F)cc3)CC2)c(F)c1` [Compound I-1-20]: in data set [1], the “MS_h_% (remaining amount of compound after reaction, 0 minute = 100%)” value came out at 83%. In data set [2] (setting [3]), the IC85 turned out to be 0.033 µM.
Taken in the same sequence, the figures for `Cc1ccn2c(C(=O)NCc3ccc(C4CCN(c5ccc(OCC(F)(F)F)cc5)CC4)c(F)c3)c(C)nc2c1` [Compound I-1-21] were 89% and 0.038 µM.
Regarding `Cc1ccn2c(C(=O)NCc3ccc(C4CCN(c5ccc(OC(F)(F)F)cc5F)CC4)c(F)c3)c(C)nc2c1` [Compound I-1-22], the “MS_h_% (remaining amount of compound after reaction, 0 minute = 100%)” value in data set [1] turned out to be 87%. In addition, the IC85 in data set [2] (setting [3]) is 0.028 µM.
Taken in the same sequence, the figures for `Cc1ccn2c(C(=O)NCc3ccc(N4CCN(c5ccc(OC(F)(F)F)cc5)[C@@H](C)C4)c(F)c3)c(C(F)(F)F)nc2c1` [Compound I-1-23] were 85% and 0.045 µM.
On to `C[C@H]1CN(c2ccc(CNC(=O)c3c(C(F)(F)F)nc4ccc(Cl)cn34)cc2F)CCN1c1ccc(OC(F)(F)F)cc1` [Compound I-1-24], for which the “MS_h_% (remaining amount of compound after reaction, 0 minute = 100%)” value in data set [1] is recorded as 62%. The compound further had an IC85 in data set [2] (setting [4]) of 0.032 µM.
Consider `Cc1ccc2nc(C)c(C(=O)NCc3ccc(N4CCN(c5ccc(OC(F)(F)F)cc5)[C@@H](C)C4)c(F)c3)n2c1` [Compound I-1-25], for which, in data set [1], the “MS_h_% (remaining amount of compound after reaction, 0 minute = 100%)” value was 72%. Further, the IC85 in data set [2] (setting [3]) was 0.0022 µM.
Turning to `Cc1nc2ccc(F)cn2c1C(=O)NCc1ccc(N2CCN(c3ccc(OC(F)(F)F)cc3)[C@@H](C)C2)c(F)c1` [Compound I-1-26], in data set [1], the “MS_h_% (remaining amount of compound after reaction, 0 minute = 100%)” value is 93%. The IC85 in data set [2] (setting [3]) was 0.015 µM.
As to `Cc1cc2nc(C)c(C(=O)NCc3ccc(N4CCN(c5ccc(OC(F)(F)F)cc5)[C@@H](C)C4)c(F)c3)n2cc1Cl` [Compound I-1-27], in data set [1], the “MS_h_% (remaining amount of compound after reaction, 0 minute = 100%)” value is reported as 80%. In addition, the IC85 in data set [2] (setting [3]) worked out at 0.033 µM.
Turning to `CCc1nc2ccc(Cl)cn2c1C(=O)NCc1ccc(N2CCN(c3ccc(OC(C)C)cc3)C(C)(C)C2)c(F)c1` [Compound I-1-28], in data set [1], the “MS_h_% (remaining amount of compound after reaction, 0 minute = 100%)” value is recorded as 94%. Also, the IC85 in data set [2] (setting [3]) stood at 0.012 µM.
As to `C[C@H]1CN(c2ccc(CNC(=O)c3c(C(F)(F)F)nc4ccc(Cl)cn34)cc2F)CCN1c1ccc(OC(F)(F)F)cc1` [Compound I-1-29], the “MS_h_% (remaining amount of compound after reaction, 0 minute = 100%)” value in data set [1] is reported as 89%. Besides, the IC85 in data set [2] (setting [4]) amounted to 0.0027 µM.
With `O=C(NCc1ccc(C2CCN(c3ccc(OC(F)(F)F)cc3)CC2)c(F)c1)c1c(C(F)(F)F)nc2ccc(Cl)cn12` [Compound I-1-30], in data set [1], the “MS_h_% (remaining amount of compound after reaction, 0 minute = 100%)” value was determined as 89%. Moreover, the IC85 in data set [2] (setting [4]) was found to be 0.0031 µM.
For the compound `Cc1ccn2c(C(=O)NCc3ccc(N4CCN(c5ccc(OC(F)(F)F)cc5)C(C)(C)C4)c(F)c3)c(C)nc2c1` [Compound I-1-31], the “MS_h_% (remaining amount of compound after reaction, 0 minute = 100%)” value in data set [1] is on record as 82%. Further, in data set [2] (setting [3]), the IC85 is 0.14 µM.
On the same counts, the results for `CCc1nc2ccc(Cl)cn2c1C(=O)NCc1ccc(N2CCN(c3ccc(OC(F)(F)F)cc3)C(C)(C)C2)c(F)c1` [Compound I-1-32] are 62% and 0.0091 µM.
Taken in the same sequence, the figures for `Cc1nc2ccc(F)cn2c1C(=O)NCc1ccc(N2CCN(c3ccc(OC(F)(F)F)cc3)C(C)(C)C2)c(F)c1` [Compound I-1-33] were 85% and 0.068 µM.
On the same counts, the results for `CCc1nc2ccc(F)cn2c1C(=O)NCc1ccc(N2CCN(c3ccc(OC(F)(F)F)cc3)[C@@H](C)C2)c(F)c1` [Compound I-1-34] are 65% and 0.008 µM.
As for `CCc1nc2cc(Cl)ccn2c1C(=O)NCc1ccc(N2CCN(c3ccc(OC(F)(F)F)cc3)[C@@H](C)C2)c(F)c1` [Compound I-1-35], the “MS_h_% (remaining amount of compound after reaction, 0 minute = 100%)” value in data set [1] was 91%. Also, the IC85 in data set [2] (setting [3]) was found to be 0.026 µM.
Taken in the same sequence, the figures for `CCc1nc2ccc(C#N)cn2c1C(=O)NCc1ccc(N2CCN(c3ccc(OC(F)(F)F)cc3)[C@@H](C)C2)c(F)c1` [Compound I-1-36] were 79% and 0.11 µM.
On to `Cc1nc2ccc(Cl)cn2c1C(=O)NCc1ccc(N2CCN(c3ccc(OC(F)(F)F)cc3)C[C@H]2C)c(F)c1` [Compound I-1-37], for which the “MS_h_% (remaining amount of compound after reaction, 0 minute = 100%)” value in data set [1] amounted to 76%. In addition, the IC85 in data set [2] (setting [3]) turned out to be 0.036 µM.
With `CCc1nc2cc(F)ccn2c1C(=O)NCc1ccc(N2CCN(c3ccc(OC(F)(F)F)cc3)[C@@H](C)C2)c(F)c1` [Compound I-1-38], the “MS_h_% (remaining amount of compound after reaction, 0 minute = 100%)” value in data set [1] amounted to 90%. The IC85 in data set [2] (setting [3]) was determined as 0.0013 µM.
Taken in the same sequence, the figures for `CCc1nc2ccc(Cl)cn2c1C(=O)NCc1ccc(N2C[C@H](C)N(c3ccc(OC(F)(F)F)cc3)C[C@H]2C)c(F)c1` [Compound I-1-39] were 75% and 0.011 µM.
